Laboratory results from PMC3038857, “Using Nuclear Receptor Activity to Stratify Hepatocarcinogens” (PLoS ONE, 2011).

Assays:
Type in all cases: cell-based
HMGCS2 = assay: CLZD_HMGCS2: Change in expression of HMGCS2 (primary human hepatocytes); conditions: 24 hr, scale not given, looks like -log10 of molar active concentration, 0 = no activity
Description: This is a collection of multiplexed gene expression assays focused on Phase I and II xenobiotic metabolizing enzymes and transporters. Human primary cell cultures were treated with chemicals at 5 concentrations (0.004-40 [drawing 42] M) for 6, 24 and 48 hr. Concentration- and time-response profiles of chemicals were measured by the expression of key nuclear receptor target genes, activities of CYP1A enzymes (EROD), and cell morphology. Fourteen gene targets were monitored by quantitative nuclease protection assay including: six representative cytochrome P-450 genes, four hepatic transporters, three Phase II conjugating enzymes, and one endogenous metabolism gene involved in cholesterol synthesis. The target genes associated with nuclear receptor pathways are as follows: [drawing 43] and [drawing 44] with [drawing 45]; [drawing 46] , [drawing 47] , [drawing 48] , [drawing 49] , [drawing 50] and [drawing 51] with [drawing 52]; [drawing 53] , [drawing 54] , [drawing 55] and [drawing 56] with [drawing 57]; [drawing 58] with [drawing 59]; and [drawing 60] with [drawing 61] . Assays were run in primary human hepatocyte cultures by CellzDirect Invitrogen Inc. (Durham, NC), in collaboration with EPA.
Multiplexed Gene Expression in Human Primary Hepatocytes: This is a collection of multiplexed gene expression assays focused on Phase I and II metabolic enzymes and transporters. […] Fourteen gene targets were monitored by quantitative nuclease protection assay: six representative cytochrome P450 genes, four hepatic transporters, three Phase II conjugating enzymes, and one endogenous metabolism gene involved in cholesterol synthesis. Cells were exposed at 5 concentrations (0.004-40 µM) for 6, 24 or 48 hr. Gene targets are sentinels for five nuclear receptor signaling pathways: AhR, CAR, PXR, FXR, and PPARα. All gene are associated with nuclear receptor pathways: CYP1A1 and CYP1A2 with AHR; ABCB1, ABCG2, CYP2B6, CYP2C9, CYP2C19 and UGT1A1 with CAR; CYP3A4, GSTA2, SLCO1B1 and SULT2A1 with PXR; HMGCS2 with PPARA; and ABCB11 with FXR. […] Detailed description of the methods, data and analysis methods for this dataset will be presented in a separate publication.

[1] = target: T1, ESR1 (estrogen receptor 1) (Homo sapiens, UniProt P03372); assay: ATG_ERa_TRANS: Factorial reporter gene assay (HepG2)
T1 construct: expressed in transfected cells; host or cells: HepG2
T1 sequence (P03372 whole entry): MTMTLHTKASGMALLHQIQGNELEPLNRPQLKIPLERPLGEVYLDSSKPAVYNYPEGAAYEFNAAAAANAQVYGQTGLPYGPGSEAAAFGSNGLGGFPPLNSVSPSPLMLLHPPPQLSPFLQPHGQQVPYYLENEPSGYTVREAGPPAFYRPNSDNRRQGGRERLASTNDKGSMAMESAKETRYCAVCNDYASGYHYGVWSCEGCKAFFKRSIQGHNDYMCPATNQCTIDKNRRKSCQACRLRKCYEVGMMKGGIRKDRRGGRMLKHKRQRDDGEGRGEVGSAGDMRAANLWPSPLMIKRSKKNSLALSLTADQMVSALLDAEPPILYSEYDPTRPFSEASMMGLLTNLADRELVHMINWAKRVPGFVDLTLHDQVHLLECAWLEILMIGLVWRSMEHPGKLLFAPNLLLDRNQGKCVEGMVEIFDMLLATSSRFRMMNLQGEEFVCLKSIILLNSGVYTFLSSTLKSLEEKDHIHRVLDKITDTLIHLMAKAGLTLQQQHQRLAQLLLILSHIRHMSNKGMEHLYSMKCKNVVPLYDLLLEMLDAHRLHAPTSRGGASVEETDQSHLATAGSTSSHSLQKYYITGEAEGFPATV
Procedure, shortened: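 Seven concentrations per chemical, three-fold dilutions down from the MTC, were tested in HepG2 hepatoma cells. Those cells carried a multiple reporter transcription unit library, read either as cis transcription-factor-site reporters or as a trans mammalian one-hybrid panel for nuclear receptors.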

PPARg (PPARG) = target: T2, PPARg (PPARG) (Homo sapiens, UniProt P37231); assay: NCGC_PPARg_Agonist: GAL4 BLAM Reporter gene assay: PPARg; parameters: expressed in transfected cells; host or cells: HEK293; conditions: agonist mode; scale not given, looks like -log10 of molar active concentration; 0 = no activity
T2 sequence (P37231 1-505): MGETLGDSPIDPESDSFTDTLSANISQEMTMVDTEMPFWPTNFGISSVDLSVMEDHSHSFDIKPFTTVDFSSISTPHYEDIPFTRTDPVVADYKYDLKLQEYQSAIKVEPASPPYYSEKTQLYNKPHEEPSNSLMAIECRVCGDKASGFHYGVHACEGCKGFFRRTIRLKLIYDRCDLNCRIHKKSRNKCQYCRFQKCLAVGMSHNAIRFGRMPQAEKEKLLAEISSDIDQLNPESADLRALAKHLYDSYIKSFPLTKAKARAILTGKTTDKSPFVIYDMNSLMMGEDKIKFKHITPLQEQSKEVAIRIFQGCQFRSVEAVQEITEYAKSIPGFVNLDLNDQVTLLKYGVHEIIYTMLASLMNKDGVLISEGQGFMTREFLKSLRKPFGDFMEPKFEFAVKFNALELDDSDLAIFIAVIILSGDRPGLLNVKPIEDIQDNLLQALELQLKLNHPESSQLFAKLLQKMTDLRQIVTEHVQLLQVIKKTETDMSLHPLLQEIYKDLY
Description: These assays measure binding constants and enzyme inhibition values for nuclear receptors. The targets include [drawing 67] , [drawing 68] , [drawing 69] , [drawing 70] , [drawing 71] , [drawing 72] , [drawing 73] , [drawing 74] , [drawing 75] and [drawing 76] . Each of the nuclear receptor targets was measured in agonist mode. Assays were run at the NIH Chemical Genomics Center (Rockville, MD).
Cell-based HTS Assays: These assays measuring binding constants and enzyme inhibition values for nuclear receptors. The targets include AR, ER, FXR, LXR, PPARα, PPARδ, PPARγ, RXRα, RXRβ and PXR. Each of the nuclear receptor targets was measured in both agonist and antagonist mode, but the antagonist data is still undergoing analysis due to possible interference between cytotoxicity and assay activity, so antagonist mode data were not used in the present analysis. Assays were run at the NIH Chemical Genomics Center (Rockville, MD) as part of the Tox21 collaboration. […] The R^2 was required to be ≥0.5. Values where only the highest concentration exceeded 50% activity were excluded to eliminate weak or false positives. Detailed description of the methods, data and analysis methods for this dataset will be presented in a separate publication.

[2] = HepG2, scale not given, looks like -log10 of molar active concentration, 0 = no activity

Compound	CLZD_HMGCS2_24 (HMGCS2)	ATG_ERa_TRANS [1, 2]	NCGC_PPARg_Agonist (PPARg (PPARG))	ATG_ERa_TRANS ([1]; HepG2)	ATG_ERa_TRANS ([1]; HepG2 reporter)
COC(=O)c1ccccc1CS(=O)(=O)NC(=O)Nc1nc(OC)cc(OC)n1 [r33]	0	0	0		
CC(C)N1C(=O)c2ccccc2NS1(=O)=O [r37]	0	0	0		
COc1ccc(-c2ccccc2)cc1NNC(=O)OC(C)C [r38]	0	0	0		
Cc1c(COC(=O)C2C(/C=C(\Cl)C(F)(F)F)C2(C)C)cccc1-c1ccccc1 (stereo not shown) [r39]	0	4.432	0		
CC(C)(c1ccc(O)cc1)c1ccc(O)cc1 [r40]	0	5.959	0		
OB(O)O [r41]	0	0	0		
O=C(Nc1ccccc1-c1ccc(Cl)cc1)c1cccnc1Cl [r42]	0	4.569	0		
CCC(C)n1c(=O)[nH]c(C)c(Br)c1=O (stereo not shown) [r43]	0	0	0		
N#Cc1cc(Br)c(O)c(Br)c1 [r44]	0	4.432	0		
CC(C)N1C(=O)N(c2ccccc2)CS/C1=N\C(C)(C)C [r45]	0	0	0		
CCCCOCN(C(=O)CCl)c1c(CC)cccc1CC [r46]	0	0	0		
C=CCOC(=O)C(C)(C)OC(=O)c1cc(-n2c(=O)cc(C(F)(F)F)n(C)c2=O)ccc1Cl [r47]	0	0	0		
CCC(C)Nc1c([N+](=O)[O-])cc(C(C)(C)C)cc1[N+](=O)[O-] (stereo not shown) [r48]	0	4.796	0		
CCSC(=O)N(CC(C)C)CC(C)C [r49]	0	0	0		
O=C1C2CC=CCC2C(=O)N1SC(Cl)(Cl)Cl (stereo not shown) [r51]	0	0	0		
CNC(=O)Oc1cccc2ccccc12 [r52]	0	4.237			
CC1=C(C(=O)Nc2ccccc2)SCCO1 [r53]	0	0	0		
CCOC(=O)C(Cl)Cc1cc(-n2nc(C)n(C(F)F)c2=O)c(F)cc1Cl (stereo not shown) [r54]	0	0	0		
Nc1cnn(-c2ccccc2)c(=O)c1Cl [r56]	0	0	0		
COc1cc(Cl)c(OC)cc1Cl [r57]	0	0	0		
N#Cc1c(Cl)c(Cl)c(Cl)c(C#N)c1Cl [r58]	0	0	0		
CC(C)OC(=O)Nc1cccc(Cl)c1 [r59]	0	0	0		
COc1nc(C)nc(NC(=O)NS(=O)(=O)c2ccccc2Cl)n1 [r62]	0	0	0		
COc1nc(C)nc(NC(=O)NS(=O)(=O)c2ccccc2Cl)n1 [r63]	0	0	0		
Cc1ccccc1CO[C@@H]1C[C@@]2(C(C)C)CC[C@]1(C)O2 [r64]	0		0		
CCCN(CCC)c1c([N+](=O)[O-])cc(C(F)(F)F)c(N)c1[N+](=O)[O-] [r252]				4.824	
CC(C)=CC1C(C(=O)OCc2coc(Cc3ccccc3)c2)C1(C)C (stereo not shown) [r280]					4.553
CCN(CC)C(=O)C(C)Oc1cccc2ccccc12 (stereo not shown) [row 219]				4.337	
